In the Kinase Knowledgebase extract (Sharma et al. 2016):

How the values were obtained:
PIK3CA (human) = PIK3CA (human) (UniProt P42336); experiment: Assessment of PIK3CA Kinase Activity
PIK3CB (Human) = PIK3CB (Human) (UniProt P42338); experiment: Assessment of PIK3CB Kinase Activity
PIK3CG (human) = PIK3CG (human) (UniProt P48736); experiment: Assessment of PIK3CG Kinase Activity
PIK3CD (Human) = PIK3CD (Human) (UniProt O00329); experiment: Assessment of PIK3CD Kinase Activity
Chain of PIK3CD (Human) (O00329 whole entry, looked up): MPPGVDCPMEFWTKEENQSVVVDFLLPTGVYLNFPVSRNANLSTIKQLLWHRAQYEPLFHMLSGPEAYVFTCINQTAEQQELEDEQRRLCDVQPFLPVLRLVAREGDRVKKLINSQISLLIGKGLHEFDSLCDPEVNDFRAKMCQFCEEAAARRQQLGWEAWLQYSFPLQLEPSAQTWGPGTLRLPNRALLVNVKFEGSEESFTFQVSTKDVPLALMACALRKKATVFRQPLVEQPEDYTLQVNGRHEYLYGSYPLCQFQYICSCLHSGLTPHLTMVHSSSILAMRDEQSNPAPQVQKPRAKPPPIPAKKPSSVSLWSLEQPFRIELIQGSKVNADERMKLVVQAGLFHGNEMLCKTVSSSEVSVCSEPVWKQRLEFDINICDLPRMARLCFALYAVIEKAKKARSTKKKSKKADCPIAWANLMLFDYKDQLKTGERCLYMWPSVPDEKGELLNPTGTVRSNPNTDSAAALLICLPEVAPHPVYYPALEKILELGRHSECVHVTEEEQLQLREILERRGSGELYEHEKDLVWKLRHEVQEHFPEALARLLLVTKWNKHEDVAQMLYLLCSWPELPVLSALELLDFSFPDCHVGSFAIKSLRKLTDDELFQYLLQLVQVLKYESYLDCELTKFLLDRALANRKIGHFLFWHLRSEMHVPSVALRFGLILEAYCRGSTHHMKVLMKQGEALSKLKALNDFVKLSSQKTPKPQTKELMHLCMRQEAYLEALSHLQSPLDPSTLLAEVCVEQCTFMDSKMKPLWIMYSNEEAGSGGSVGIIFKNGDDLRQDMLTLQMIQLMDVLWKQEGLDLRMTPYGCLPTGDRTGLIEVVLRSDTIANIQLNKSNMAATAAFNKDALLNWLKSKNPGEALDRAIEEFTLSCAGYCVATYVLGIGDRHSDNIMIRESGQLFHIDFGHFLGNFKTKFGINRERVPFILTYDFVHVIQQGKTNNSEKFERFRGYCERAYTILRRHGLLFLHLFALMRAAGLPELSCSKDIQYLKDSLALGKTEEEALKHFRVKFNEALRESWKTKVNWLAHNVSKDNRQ

Chain of PIK3CA (human) (P42336 whole entry, looked up): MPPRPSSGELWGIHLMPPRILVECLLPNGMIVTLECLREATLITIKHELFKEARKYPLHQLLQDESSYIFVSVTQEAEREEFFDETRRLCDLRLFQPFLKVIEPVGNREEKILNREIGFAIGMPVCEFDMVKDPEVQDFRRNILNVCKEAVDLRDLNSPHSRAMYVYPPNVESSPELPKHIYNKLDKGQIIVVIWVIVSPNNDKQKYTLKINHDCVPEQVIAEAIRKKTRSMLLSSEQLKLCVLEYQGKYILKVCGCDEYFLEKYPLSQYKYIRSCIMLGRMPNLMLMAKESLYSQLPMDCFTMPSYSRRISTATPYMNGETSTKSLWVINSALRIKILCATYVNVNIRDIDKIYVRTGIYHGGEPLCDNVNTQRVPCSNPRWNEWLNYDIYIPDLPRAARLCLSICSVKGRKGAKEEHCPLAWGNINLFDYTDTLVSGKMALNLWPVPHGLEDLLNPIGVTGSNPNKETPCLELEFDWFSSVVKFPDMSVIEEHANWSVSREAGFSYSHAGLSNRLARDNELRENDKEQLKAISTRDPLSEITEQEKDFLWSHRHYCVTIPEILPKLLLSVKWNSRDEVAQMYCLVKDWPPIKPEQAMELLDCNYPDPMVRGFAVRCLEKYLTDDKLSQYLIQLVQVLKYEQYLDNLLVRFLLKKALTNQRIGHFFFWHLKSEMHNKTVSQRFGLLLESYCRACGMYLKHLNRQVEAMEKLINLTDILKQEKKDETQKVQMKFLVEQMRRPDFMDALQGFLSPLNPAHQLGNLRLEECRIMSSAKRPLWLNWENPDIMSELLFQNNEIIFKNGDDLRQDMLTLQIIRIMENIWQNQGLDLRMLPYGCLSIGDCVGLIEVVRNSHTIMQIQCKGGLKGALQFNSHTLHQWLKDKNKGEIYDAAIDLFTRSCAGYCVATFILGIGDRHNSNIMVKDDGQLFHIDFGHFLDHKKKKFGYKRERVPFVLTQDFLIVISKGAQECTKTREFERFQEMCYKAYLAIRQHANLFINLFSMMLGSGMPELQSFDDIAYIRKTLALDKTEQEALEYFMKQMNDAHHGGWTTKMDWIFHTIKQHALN
Chain of PIK3CB (Human) (P42338 whole entry, looked up): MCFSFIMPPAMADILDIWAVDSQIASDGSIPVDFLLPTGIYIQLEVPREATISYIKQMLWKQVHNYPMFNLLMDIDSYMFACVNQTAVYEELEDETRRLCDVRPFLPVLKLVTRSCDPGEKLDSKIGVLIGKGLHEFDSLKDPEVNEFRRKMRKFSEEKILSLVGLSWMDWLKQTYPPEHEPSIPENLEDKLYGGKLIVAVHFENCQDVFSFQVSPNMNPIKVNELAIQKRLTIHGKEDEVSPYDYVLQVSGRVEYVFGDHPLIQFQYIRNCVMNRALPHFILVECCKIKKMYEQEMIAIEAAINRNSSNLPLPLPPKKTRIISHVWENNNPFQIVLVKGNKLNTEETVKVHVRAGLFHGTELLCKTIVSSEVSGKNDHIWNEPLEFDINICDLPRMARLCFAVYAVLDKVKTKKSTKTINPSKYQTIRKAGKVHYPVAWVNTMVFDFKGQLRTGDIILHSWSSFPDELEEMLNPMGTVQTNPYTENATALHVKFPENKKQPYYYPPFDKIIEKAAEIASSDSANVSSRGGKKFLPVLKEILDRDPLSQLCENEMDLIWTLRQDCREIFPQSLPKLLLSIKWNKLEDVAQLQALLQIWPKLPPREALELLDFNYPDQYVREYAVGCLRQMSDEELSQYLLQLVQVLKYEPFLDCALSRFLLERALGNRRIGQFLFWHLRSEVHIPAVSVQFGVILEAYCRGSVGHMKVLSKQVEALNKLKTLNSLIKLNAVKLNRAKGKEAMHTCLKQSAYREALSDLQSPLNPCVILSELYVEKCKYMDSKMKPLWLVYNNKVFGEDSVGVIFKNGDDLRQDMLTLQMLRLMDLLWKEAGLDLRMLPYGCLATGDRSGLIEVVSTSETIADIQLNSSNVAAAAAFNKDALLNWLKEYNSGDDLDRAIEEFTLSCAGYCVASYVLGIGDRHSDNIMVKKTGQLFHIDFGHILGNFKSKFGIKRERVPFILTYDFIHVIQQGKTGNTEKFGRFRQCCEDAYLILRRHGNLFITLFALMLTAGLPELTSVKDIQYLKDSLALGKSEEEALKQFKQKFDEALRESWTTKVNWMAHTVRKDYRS
Chain of PIK3CG (human) (P48736 whole entry, looked up): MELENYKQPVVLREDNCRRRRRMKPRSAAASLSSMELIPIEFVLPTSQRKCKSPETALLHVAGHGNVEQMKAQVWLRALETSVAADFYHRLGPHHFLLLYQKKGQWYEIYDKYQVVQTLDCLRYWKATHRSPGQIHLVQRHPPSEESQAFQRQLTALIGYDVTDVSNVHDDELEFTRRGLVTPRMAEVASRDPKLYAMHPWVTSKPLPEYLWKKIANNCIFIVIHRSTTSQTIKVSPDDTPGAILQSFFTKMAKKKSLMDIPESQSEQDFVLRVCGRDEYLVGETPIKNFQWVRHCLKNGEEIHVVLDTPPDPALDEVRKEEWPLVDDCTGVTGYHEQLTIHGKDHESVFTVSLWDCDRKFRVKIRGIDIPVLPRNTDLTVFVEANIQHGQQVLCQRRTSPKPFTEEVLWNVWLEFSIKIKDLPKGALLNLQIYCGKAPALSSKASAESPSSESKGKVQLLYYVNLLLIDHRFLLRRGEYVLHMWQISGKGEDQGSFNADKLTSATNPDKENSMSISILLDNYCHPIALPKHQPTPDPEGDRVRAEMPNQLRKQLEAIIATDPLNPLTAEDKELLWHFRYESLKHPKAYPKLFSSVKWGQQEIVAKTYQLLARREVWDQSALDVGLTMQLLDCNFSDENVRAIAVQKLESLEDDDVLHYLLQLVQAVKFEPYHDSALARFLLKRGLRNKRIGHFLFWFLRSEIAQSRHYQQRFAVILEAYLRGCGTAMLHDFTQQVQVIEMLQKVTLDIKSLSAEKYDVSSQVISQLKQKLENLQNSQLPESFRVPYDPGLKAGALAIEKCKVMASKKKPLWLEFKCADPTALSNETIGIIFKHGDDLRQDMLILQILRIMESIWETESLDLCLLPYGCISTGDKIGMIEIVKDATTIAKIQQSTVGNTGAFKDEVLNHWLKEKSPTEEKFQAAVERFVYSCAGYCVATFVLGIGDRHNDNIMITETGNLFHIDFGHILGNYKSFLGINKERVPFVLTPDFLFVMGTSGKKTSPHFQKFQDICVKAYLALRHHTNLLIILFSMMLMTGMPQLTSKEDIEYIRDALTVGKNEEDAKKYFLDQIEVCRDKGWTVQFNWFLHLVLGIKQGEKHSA

Row | SMILES | IC50 (PIK3CA (human)) [nM] | further results
1 | CNc1ccc(-c2nc(N3CCOCC3)c3sc(CN(C)c4ncc(C(=O)NO)cn4)cc3n2)cn1 | < 100 | IC50 (PIK3CB (Human)): 100 to 1000 nM; IC50 (PIK3CG (human)): 100 to 1000 nM; IC50 (PIK3CD (Human)): < 100 nM
2 | CN(Cc1cc2nc(-c3cccc4[nH]c(=O)[nH]c34)nc(N3CCOCC3)c2s1)c1ncc(C(=O)NO)cn1 | 100 to 1000 | –
3 | CNc1ccc(-c2nc(N3CCOCC3)c3sc(NCCCCC(=O)NO)cc3n2)cn1 | < 100 | –
4 | CNCCOc1ccc(-c2nc(N3CCOCC3)c3sc(CN(C)c4ncc(C(=O)NO)cn4)cc3n2)cn1 | > 10000 | –
5 | CCOc1ccc(-c2nc(N3CCOCC3)c3sc(CN(C)c4ncc(C(=O)NO)cn4)cc3n2)cn1 | < 100 | –
6 | Nc1ccc(-c2nc(N3CCOCC3)c3sc(CNCc4ccc(C(=O)NO)cc4)cc3n2)cc1 | > 10000 | –
7 | CCCc1nc2cc(C=CC(=O)NO)ccc2n1CCN(C)Cc1cc2nc(-c3ccc(N)cc3)nc(N3CCOCC3)c2s1 | 100 to 1000 | –
8 | CN(Cc1cc2nc(-c3ccc(S(C)(=O)=O)cc3)nc(N3CCOCC3)c2s1)c1ncc(C(=O)NO)cn1 | > 10000 | –
9 | COc1ccc(-c2nc(N3CCOCC3)c3sc(S(=O)(=O)Nc4ncc(C(=O)NO)cn4)cc3n2)cn1 | < 100 | –
10 | CS(=O)(=O)N1CCN(Cc2cc3nc(-c4cccc5c4cnn5CCCCCCC(=O)NO)nc(N4CCOCC4)c3s2)CC1 | > 10000 | –
11 | Nc1ncc(-c2nc(N3CCOCC3)c3sc(NS(=O)(=O)c4ccc(/C=C/C(=O)NO)cc4)cc3n2)cn1 | < 100 | –
12 | CS(=O)(=O)N1CCN(Cc2cc3nc(-c4cccc5[nH]ncc45)nc(N4CCN(CCCCCC(=O)NO)CC4)c3s2)CC1 | > 10000 | –
13 | CC(=O)c1cc(-c2nc(N3CCOCC3)c3sc(CN(C)c4ncc(C(=O)NO)cn4)cc3n2)ccc1N | 100 to 1000 | –
14 | Nc1ccc(-c2nc(N3CCOCC3)c3sc(Nc4ncc(C(=O)NO)cn4)cc3n2)cc1 | < 100 | –
15 | CN(Cc1cc2nc(-c3ccc(N)c(C#N)c3)nc(N3CCOCC3)c2s1)c1ncc(C(=O)NO)cn1 | 100 to 1000 | –
16 | CN(Cc1cc2nc(-c3cccc(SCCO)c3)nc(N3CCOCC3)c2s1)c1ncc(C(=O)NO)cn1 | 100 to 1000 | –
17 | CCNc1ccc(-c2nc(N3CCOCC3)c3sc(CN(C)c4ncc(C(=O)NO)cn4)cc3n2)cc1 | > 10000 | –
18 | CS(=O)(=O)N1CCN(Cc2cc3nc(-c4cccc5c4cnn5CCCCCC(=O)NO)nc(N4CCOCC4)c3s2)CC1 | > 10000 | –
19 | COc1ccc(-c2nc(N3CCOCC3)c3sc(Nc4ncc(C(=O)NO)cn4)cc3n2)cn1 | < 100 | –
20 | CN(Cc1cc2nc(-c3ccc4c(c3)CCN4)nc(N3CCOCC3)c2s1)c1ncc(C(=O)NO)cn1 | > 10000 | –
